From patent EP1038870A1, “3,3-bis(aryl)-5-((N-(un)substituted)amido)naphthopyrans, their preparation, compositions and (co)polymer matrices containing them” (Corning S.A., priority 1999, dated 2000)

Assay: Photochromic properties of lens samples (2 mm, compound in the mass of cross-linked matrix I or II) exposed to UV radiation from a xenon lamp
Assay type: physicochemical
Conditions: lens sample
Excerpt: The matrix used in accordance with the present invention may be one of two types:
A homopolymer of the monomer DIACRYL 121 (D121 : tetraethoxylated Bisphenol A dimethylmethacrylate), marketed by Akzo Nobel; or
A copolymer comprised of a 50/50 mixture by weight of D121 (as above) and polyethylene glycol dimethacrylate (Molecular weight = 400) (PEGDMA 400).
10^-5 moles of at least one compound of the invention, together with 0.2% by weight of AMBN (2,2'-azobis(2-methylbutyronitrile)) provided by Akzo, are added to 10 g of formulations able to generate cross-linked matrix I or II. The formulations thus prepared are then poured into a lens mould of 2 mm thickness and then cured by heating at 60°C for 6 hours, followed by heating at 80°C for 2 hours to give a lens sample. The photochromic properties of the lens samples thus obtained were then evaluated as follows : Said lens sample, containing said photochromic compounds in its mass, is exposed to a UV radiation (source: xenon lamp).

[1] = Matrix I (homopolymer of DIACRYL 121)
[2] = Matrix II (50/50 D121 / PEGDMA 400 copolymer)

| SMILES | OID : optical induced density (D∞-D0) [1] | T0 : the transmission before exposure to UV [1] [%] | TD15: the transmission after 15 minutes' exposure to UV [1] [%] | λmax: the maximum absorption in the visible spectrum after UV irradiation [1] [nm] | OID : optical induced density (D∞-D0) [2] | T0 : the transmission before exposure to UV [2] [%] | TD15: the transmission after 15 minutes' exposure to UV [2] [%] | λmax: the maximum absorption in the visible spectrum after UV irradiation [2] [nm] |
| --- | --- | --- | --- | --- | --- | --- | --- | --- |
| CN(C)c1ccc(C2(c3ccc(N(C)C)c4ccccc34)C=Cc3c(c(C(=O)N4CCOCC4)cc4ccccc34)O2)cc1 (stereo not drawn) [Example 4, 3-(4-dimethylaminophenyl)-3-(4-dimethylaminonapthyl)-5-morpholinocarbonyl-3H-naphtho[2,1-b]pyran] | 0.325 | 65.0 | 30.8 | 556 |  |  |  |  |
| COc1ccc(C2(c3ccc(OC)cc3OC)C=Cc3c(c(C(=O)N4CCc5ccccc54)cc4ccccc34)O2)c(OC)c1 [Example 5, 3,3-bis(2,4-dimethoxyphenyl)-5-indolinocarbonyl--3H-naphtho[2,1-b]pyran] | 1.063 | 85.6 | 7.4 | 514 | 1.634 | 84.0 | 2.0 | 514 |
| Cc1ccc(NC(=O)c2cc3ccccc3c3c2OC(c2ccccc2)(c2ccccc2)C=C3)cc1 [Example 1, 3,3-diphenyl-5-p-tolylcarbamoyl-3H-naphtho[2,1-b]pyran] | 0.315 | 87.9 | 42.6 | 477 |  |  |  |  |
| C1=CC(c2ccccc2)(c2ccccc2)Oc2ccc3ccccc3c21 [Control, 3,3-bisphenyl-3H-naphtho[2,1-b]pyran, reference compound] |  |  |  |  | 0.280 | 88 | 44 | 436 |
| COc1ccc(C2(c3ccc(OC)cc3OC)C=Cc3c(c(C(=O)N4CCOCC4)cc4ccccc34)O2)cc1 (stereo not drawn) [Example 6, 3-(2,4-dimethoxyphenyl)-3-(4-methoxyphenyl)-5-morpholinocarbonyl-3H-naphtho[2,1-b]pyran] | 1.931 | 85.4 | 1.0 | 510 | 2.146 | 84.0 | 0.6 |  |
| COc1ccc(C2(c3ccc(OC)cc3OC)C=Cc3c(c(C(=O)N4CCOCC4)cc4ccccc34)O2)c(OC)c1 [Example 2, 3,3-bis(2,4-dimethoxyphenyl)-5-morpholinocarbonyl-3H-naphtho[2,1-b]pyran] | 1.303 | 85.7 | 4.3 | 514 |  |  |  |  |
| COc1ccc(C2(c3ccc(OC)cc3OC)C=Cc3c(c(C(=O)N4CCCCC4)cc4ccccc34)O2)c(OC)c1 [Example 9, 3,3-bis(2,4-dimethoxyphenyl)-5-piperidinocarbonyl-3H-naphtho[2,1-b]pyran] |  |  |  |  | 0.765 | 89.0 | 15.3 | 504 |
| COc1ccc(C2(c3ccc(N4CCCCC4)cc3)C=Cc3c(c(C(=O)N4CCCCC4)cc4ccccc34)O2)c(OC)c1 (stereo not drawn) [Example 8, 3-(2,4-dimethoxyphenyl)-3-(p-N-piperidinophenyl)-5-piperidinocarbonyl-3H-naphtho[2,1-b]pyran] | 0.637 | 85.4 | 19.7 | 570 | 0.769 | 85.8 | 14.6 | 570 |
| COc1ccc(C2(c3ccc(OC)c(OC)c3)C=Cc3c(c(C(=O)N4CCOCC4)cc4ccccc34)O2)c(OC)c1 (stereo not drawn) [Example 7, 3-(2,4-dimethoxyphenyl)-3-(3,4-dimethoxyphenyl)-5-morpholinocarbonyl-3H-naphtho[2,1-b]pyran] | 0.746 | 88.0 | 15.8 | 512 | 0.805 | 88.1 | 13.8 | 512 |
